Measurements from patent US20140271734A1, “BILE ACID RECYCLING INHIBITORS FOR TREATMENT OF BARRETT'S ESOPHAGUS AND GASTROESOPHAGEAL REFLUX DISEASE” (LUMENA PHARMACEUTICALS, INC., priority 2013, published 2014).
Read-outs that look alike come from different tables or passages of the source.

Experiments:
[1] = Single-dose [14C]LUM001 oral solution: radioactivity in plasma, blood, urine, feces; assay type: in vivo, human
Method: This was an open-label, one-period, single-dose study of a [^14C]LUM001 oral solution. Eight healthy male subjects received an oral solution of 5 mg [^14C]LUM001 (containing approximately […] per dose). Blood samples were collected at predose and for 72 hours postdose, urine samples were collected predose and for 168 hours postdose and feces were collected predose and for 216 hours postdose. Plasma, whole blood, urine and fecal samples were analyzed for total radioactivity, and selected fecal samples were analyzed for LUM001 and relevant metabolite concentrations. In addition, metabolic profiles in selected fecal samples were obtained using high performance liquid radio chromatography (HPLRC).

[2] = Pharmacokinetics of LUM001 after oral gavage in rats; assay type: in vivo; conditions: both sexes, Sprague Dawley, rat, plasma; for bioavailability: read-out: BA (bioavailability); for AUC(0-t): read-out: AUC(0-8 h)
Method: Groups of fasted Sprague Dawley rats (n=6/sex/group) were administered LUM001 as a single oral solution dose of either 1, 5 or 30 mg LUM001 free form/kg. The dose of 5 mg LUM001 free form/kg was also administered to rats in a fed state to evaluate the effect of food on plasma concentrations of LUM001 free form. Since LUM001 is a chloride salt, 105% of the amount of LUM001 is required to deliver the stated dose of the free form. The oral dose was delivered to the rat in Tween 80Milli-Q water (0.2% Tween, v/v) and was prepared on the day of dosing.
Blood samples of approximately 1 mL (n=2/sex/timepoint/treatment group) were collected by retro-orbital bleed into chilled tubes containing heparin at timepoints 0 (predose), 0.25, 0.5, 1, 1.5, 2, 3, 5 and 8 hours. The plasma samples were prepared by centrifugation of blood within 30 minutes after sample collection. All samples were stored at −20° C.±5° C. until analysis to study the relative exposures of LUM001 free form after oral solution dosing. The concentration of LUM001 free form in plasma were determined using an LCMSMS method. The assay sensitivity was 2.38 ng/mL.
Means and standard errors of the means (SEM) were calculated for plasma concentrations at each time point. Mean values are significant to three figures and SEM values are significant to the same decimal place as the corresponding mean. Concentration values less than the assay sensitivity (2.38 ng LUM001 free form/mL) were reported as zero. The area under the plasma concentration-time curve (AUC) was calculated from time 0 to 8 hours using a non-compartmental model in WinNonlin (1). The bioavailability (% BA) of LUM001 after oral administration of LUM001 was calculated according to the equation below:
% BA=[AUC oral (0-8)/AUC IV(0-8)/Dose oral/Dose IV]×100.

total serum bile acids = assay: Plasma total serum bile acids in ZDF rats, week 3; assay type: in vivo; conditions: twice daily oral gavage
[3] = 5 mg [14C]LUM001 oral solution, eight healthy male subjects
[4] = 5 mg [14C]LUM001 oral solution, analyte in feces
[5] = 5 mg/kg, single oral gavage 5 mg/kg free form, fasted
[6] = 5 mg/kg, single oral gavage 5 mg/kg free form, fed
[7] = 30 mg/kg, single oral gavage 30 mg/kg free form, fasted

In the case of `CCCCC1(CCCC)CS(=O)(=O)c2ccc(N(C)C)cc2[C@@H](c2ccc(OCc3ccc(C[N+]45CCN(CC4)CC5)cc3)cc2)[C@H]1O` [LUM001], the “Fecal radioactivity associated with unchanged free LUM001” value ([1]; 5 mg [14C]LUM001 oral solution) is reported as 94%, the “Radioactive dose detected in plasma, whole blood or urine” value [1, 3] is reported as “Less than 1%” and the “Total radioactive dose detected in feces” value [1, 3] is reported as 72%. The “Mean Percent of Dose in Feces” value [1, 4] was 65.0%, the “Percent of Fecal Radioactivity” value [1, 4] was 94.4% and the “Cumulative % of Total Dose” value ([1]; Feces incl. Toilet Paper (cumulative recovery in toilet paper from first five fecal samples)) was 72.466%. For the same molecule, the “Cumulative % of Total Dose” value ([1]; Feces, 0-24 hr) was 30.376%, the “Cumulative % of Total Dose” value ([1]; Feces, 24-48 hr) was 49.878% and the “Cumulative % of Total Dose” value ([1]; Feces, 48-72 hr) was 67.630%. The “Cumulative % of Total Dose” value ([1]; Feces, 72-96 hr) was 69.653%, the “Cumulative % of Total Dose” value ([1]; Feces, 96-120 hr) was 71.606% and the “Cumulative % of Total Dose” value ([1]; Feces, 120-144 hr) was 71.771%. The “Cumulative % of Total Dose” value ([1]; Feces, 144-168 hr) was 71.815%, the “Cumulative % of Total Dose” value ([1]; Feces, 168-192 hr) was 71.885% and the “Cumulative % of Total Dose” value ([1]; Feces, 192-216 hr) was 71.885%. The “Radioactive Concentration” value ([1]; Plasma, 0.5 hr) was “BLQ”, the “Radioactive Concentration” value ([1]; Plasma, 1 hr) was “BLQ” and the “Radioactive Concentration” value ([1]; Plasma, 1.5 hr) was “BLQ”. The “Radioactive Concentration” value ([1]; Plasma, 2 hr) was “BLQ”, the “Radioactive Concentration” value ([1]; Plasma, 2.5 hr) was “BLQ” and the “Radioactive Concentration” value ([1]; Plasma, 3 hr) was “BLQ”. For the same molecule, the “Radioactive Concentration” value ([1]; Plasma, 4 hr) was “BLQ”, the “Radioactive Concentration” value ([1]; Plasma, 6 hr) was “BLQ” and the “Radioactive Concentration” value ([1]; Plasma, 8 hr) was “BLQ”. For the same molecule, the “Radioactive Concentration” value ([1]; Plasma, 12 hr) was “BLQ”, the “Radioactive Concentration” value ([1]; Plasma, 16 hr) was 0.000 ng equivalents/mL and the “Radioactive Concentration” value ([1]; Plasma, 24 hr) was “BLQ”. The “Radioactive Concentration” value ([1]; Plasma, 36 hr) was 0.000 ng equivalents/mL, the “Radioactive Concentration” value ([1]; Plasma, 48 hr) was “BLQ” and the “Radioactive Concentration” value ([1]; Plasma, 60 hr) was “BLQ”. The “Radioactive Concentration” value ([1]; Plasma, 72 hr) was “BLQ”, the “Cumulative % of Total Dose” value ([1]; Total (Urine and Feces)) was 72.532% and the “Cumulative % of Total Dose” value ([1]; Urine, 0-2 hr) was 0.005%. For the same molecule, the “Cumulative % of Total Dose” value ([1]; Urine, 2-4 hr) was 0.012%, the “Cumulative % of Total Dose” value ([1]; Urine, 4-8 hr) was 0.028% and the “Cumulative % of Total Dose” value ([1]; Urine, 8-12 hr) was 0.041%. For the same molecule, the “Cumulative % of Total Dose” value ([1]; Urine, 12-24 hr) was 0.058%, the “Cumulative % of Total Dose” value ([1]; Urine, 24-48 hr) was 0.057% and the “Cumulative % of Total Dose” value ([1]; Urine, 48-72 hr) was 0.062%. For the same molecule, the “Cumulative % of Total Dose” value ([1]; Urine, 72-96 hr) was 0.063%, the “Cumulative % of Total Dose” value ([1]; Urine, 96-120 hr) was 0.063% and the “Cumulative % of Total Dose” value ([1]; Urine, 120-144 hr) was 0.064%. The “Cumulative % of Total Dose” value ([1]; Urine, 144-168 hr) was 0.066%, the “Radioactive Concentration” value ([1]; Whole Blood, 1 hr) was 0.000 ng equivalents/g and the “Radioactive Concentration” value ([1]; Whole Blood, 4 hr) was 0.000 ng equivalents/g. The “Radioactive Concentration” value ([1]; Whole Blood, −0.5 hr) was 0.000 ng equivalents/g, the bioavailability ([2]; 1 mg/kg, single oral gavage 1 mg/kg free form, fasted) was under 0.1% and the Cmax [2, 5] was 2.45 ng/mL. For the same molecule, the Tmax [2, 5] was 60 min, the AUC(0-t) [2, 5] was 6.58 ng·h/mL and the bioavailability [2, 5] was 0.1%. For the same molecule, the Cmax [2, 6] was 3.58 ng/mL, the Tmax [2, 6] was 15 min and the AUC(0-t) [2, 6] was 12.6 ng·h/mL. It also gave a bioavailability [2, 6] of 0.2%, a Cmax [2, 7] of 5.43 ng/mL and a Tmax [2, 7] of 30 min. It also gave an AUC(0-t) [2, 7] of 4.16 ng·h/mL and a bioavailability [2, 7] of under 0.1%.
In the case of `CCCC[C@]1(CC)CS(=O)(=O)c2ccc(N(C)C)cc2[C@@H](c2cccc(NC(=O)N[C@@H]3O[C@H](COS(=O)(=O)[O-])[C@@H](O)[C@H](OCc4ccccc4)[C@H]3O)c2)[C@H]1O.CCO.O.[K+]` [LUM002, potassium((2R,3R,4S,5R,6R)-4-benzyloxy-6-{3-[3-((3S,4R,5R)-3-butyl-7-dimethylamino-3-ethyl-4-hydroxy-1,1-dioxo-2,3,4,5-tetrahydro-1H-benzo[b]thiepin-5-yl)-phenyl]-ureido}-3,5-dihydroxy-tetrahydro-pyran-2-ylmethyl)sulphate ethanolate, hydrate], the “Plasma total serum bile acids (SBA)” value (total serum bile acids) is reported as “statistically significant reductions in SBA”.
